A melting point compilation (Tetko et al.; mined from patent text by program, amines drawn as free bases though some values may be those of a salt)

Compared with COc1cc(OC(C)=O)c2ccccc2c1OC(C)=O, COc1cccc(-c2c(C(=O)O)c(=O)n(C)c3ncccc23)c1 is higher in melting point: 135 to 136 °C for the first, 196 to 197 °C for the second.

First: CC(=O)Oc1cc2c(cc1C(C)(C)CC(C)(C)C)OC(C)(COc1ccc([N+](=O)[O-])cc1)CC2=O (configuration not stated)
Second: COc1cc(C(C)(C)CNC(=O)c2cccc(Br)c2)cc2c1OC(C)(C)C2
The melting point of the first is higher: 166 to 167 °C for the first, 157 to 163 °C for the second.

First: CCCN(CCC)CC(=O)OC1CC2(C)C(C(=O)CO)CCC2C2CCC3CC(O)CCC3(C)C12 (configuration not stated)
Second: CC(=O)OC1CCC2(C)C(CCC3C4CCC(C(C)=O)C4(C)CC(=O)C32)C1 (configuration not stated)
The melting point of the first is lower: 98 to 102 °C for the first, 130 to 133 °C for the second.

Going from CCOC(C)Oc1cnc(C(C)C)nc1O (configuration not stated) to CCOc1nc(O)c(C#N)s1, the melting point rises from 70 °C to 132 °C.

Compared with C=C(C)Cc1c(C)c(NC=O)c(C)c(C)c1O, CCC(=O)Nc1ccc(C)c(O)c1C is lower in melting point: 163 to 164 °C for the first, 140 °C for the second.

First: O=C(CN1CCOCC1)Nc1ccc2c(c1)Cc1cn[nH]c1-2
Second: Cc1nnc2n1-c1sc(CC(=O)N3CCOCC3)cc1C(c1ccccc1Cl)=NC2C (configuration not stated)
The melting point of the first is higher: 141 to 148 °C for the first, 126 to 129 °C for the second.

First: CC1(C)CCc2[nH]cc(C(=O)Nc3ccc4c(c3)OCO4)c2C1=O
Second: CN1CCOc2cc(-c3cnc4[nH]cc(C(=O)C5(C)CCCCC5)c4n3)ccc21
The melting point of the first is higher: 251 to 252 °C for the first, 243 to 244 °C for the second.

Compared with O=C(O)CCCSc1ccc(C(=O)O)cn1, O=C(O)CCCCN(C(=O)c1ccc(Cl)cc1)c1ccccc1-c1ccccc1 is lower in melting point: 185 °C for the first, 170 to 173 °C for the second.

First: CCCc1c(OCCCCCc2c(O)c(O)c(Cl)c(Cl)c2Cl)ccc(C(=O)O)c1O
Second: CCCCCCn1nc(-c2ccc(C(F)(F)F)cc2)cc1CCC(=O)c1ccc(OCC(=O)O)c(C)c1
The melting point of the first is higher: 193 to 196 °C for the first, 118 to 123 °C for the second.

Compared with O=C(c1ccc(-c2ccccc2)nc1)N1Cc2cccn2Cc2ccccc21, Cc1oc(-c2ccccc2)nc1COc1cccc(COc2nn(Cc3ccccc3)cc2C=O)c1 is lower in melting point: 171 to 174 °C for the first, 131 to 132 °C for the second.

Compared with CCCn1cc2c(C3C(=O)Nc4ccc(C#N)cc43)nc(NCc3ccncc3)nc2n1 (configuration not stated), N#CCCNC(=O)c1cccc(-c2cccc3nn(Cc4ccc(F)c(F)c4)cc23)c1 is lower in melting point: 299 to 302 °C for the first, 191 to 192 °C for the second.

Compared with O=C(O)CC[C@H]1CC[C@H]2CN[C@H](C(=O)O)C[C@H]2C1 (racemic), Cc1ccc2c(c1)c(CCC(=O)O)c1n2C(=O)CCC1 is lower in melting point: 190 to 191 °C for the first, 152 to 153 °C for the second.

First: CCc1c(C(F)(F)F)noc1NS(=O)(=O)c1cccc2ccccc12
Second: Cc1[nH]c2ccc(S(=O)(=O)c3ccccc3)cc2c1CCNC(=O)OC(C)(C)C
The melting point of the first is lower: 135 to 137 °C for the first, 210 to 213 °C for the second.

First: Nc1nc(C(=NOCC(=O)NOCc2ccccc2)C(=O)O)cs1
Second: NC(=O)C(=O)Nc1nc(-c2cc(-c3ccccc3)on2)cs1
The melting point of the first is lower: 170 to 172 °C for the first, 246 to 247 °C for the second.

Compared with NC(N)=Nc1nc(N2CCOCC2)nc2c1ccc1ccccc12, ON=Cc1ccc(-c2ccc(O)cc2)c2ccccc12 is lower in melting point: 235 °C for the first, 200 °C for the second.

Compared with N#Cc1ccc(-c2nc(Cl)c3c(n2)CCCC3)cc1, N#Cc1cc(Cl)c(Cl)c(-c2ccc(Cl)cc2)n1 is lower in melting point: 190 °C for the first, 142 to 145 °C for the second.

Compared with CCCc1nn(C)c2c(Oc3ccc(F)cc3)nc(-c3ccccc3)nc12, CS(=O)(=O)c1ccc(-c2[nH]c(CO)nc2-c2ccc(F)cc2)cc1 is lower in melting point: 126 to 128 °C for the first, 115 to 117 °C for the second.

First: CCCCCCCCCCS(=O)(=O)c1ccc(O)c(C(=O)Nc2cccc(C(F)(F)F)c2)c1
Second: C=CC(=O)OCCCCCCCCCCCCOc1ccc(-c2cccc(F)c2F)cc1
The melting point of the first is higher: 108 to 109 °C for the first, 59.7 to 60.7 °C for the second.

First: C[C@@H]1C(=O)N(CO)Cc2ccccc2[C@@H]1C (relative stereo)
Second: CC1(Sc2ccccc2)C(=O)C2CC=CC21 (configuration not stated)
The melting point of the first is higher: 91 to 92 °C for the first, 49 °C for the second.

First: CC(C)Oc1ccc(CCN2CCC3(CC2)CNC(=O)CO3)cc1
Second: CCn1ncc(OCc2ccc(OCOC)cc2)c(Br)c1=O
The melting point of the first is higher: 135 to 137 °C for the first, 104 to 106 °C for the second.

Compared with Cc1cc(NC(=O)C(C)(O)COc2cc(F)cc(F)c2)ccc1[N+](=O)[O-] (configuration not stated), CNC(=O)C1=CC(C)(C(F)(F)F)Oc2ccc([N+](=O)[O-])cc21 (configuration not stated) is higher in melting point: 104 to 106 °C for the first, 196 to 197 °C for the second.

First: CN(N=C(Cl)c1c(F)cccc1Cl)S(=O)(=O)c1ccccc1
Second: COC(=O)CNC(=O)c1ccc(C(=O)NS(=O)(=O)c2ccccc2)cn1
The melting point of the first is lower: 103 to 105 °C for the first, 125 to 126 °C for the second.

First: O=C(O)c1ccc(NCc2ccc(Cl)cc2)cc1
Second: CC(C)(O)c1ccc(CNC(=O)c2cccnc2Oc2ccc3ncsc3c2)cc1
The melting point of the first is higher: 206 to 208 °C for the first, 195 to 197 °C for the second.

First: CCOc1cc2c(cc1S(=O)(=O)NC(=S)NC)C(CNC(=O)c1cc(Cl)ccc1OC)CCO2 (configuration not stated)
Second: CC(C)(C)OC(=O)N1CCC(c2ccc3oc(-c4ccc(S(C)(=O)=O)cc4F)nc3c2)CC1
The melting point of the first is higher: 202 °C for the first, 168 to 171 °C for the second.

Compared with Cc1ccc(-n2nc(C(C)(C)C)cc2NC(=O)Nc2ccc(OCCN3CCS(=O)CC3)c3ccccc23)cc1, COc1ccc(C)cc1NC(=O)Nc1ccc(N2CCN(C(=O)Nc3c(CO)cccc3C(F)(F)F)CC2)cc1 is lower in melting point: 205 to 207 °C for the first, 139 to 140 °C for the second.

First: O=C(CBr)c1cc2c(Cl)cccc2s1
Second: O=C1Nc2cccc(Cl)c2C(=O)N2CC=C[C@@H]12
The melting point of the first is lower: 116 to 118 °C for the first, 250 °C for the second.

First: OC(c1ccc(F)cc1)(c1ccc(F)cc1)C1CCN(CCCOc2ccc(Cl)cc2)CC1
Second: CC(C)(C)c1ccc(C(O)CCCN2CCC(C3(O)c4ccccc4CCc4ccccc43)CC2)cc1 (configuration not stated)
The melting point of the first is lower: 92 to 93 °C for the first, 142 to 144 °C for the second.

First: N#CN=c1ccccn1C1=CC(CF)(CF)Oc2ccc([N+](=O)[O-])cc21
Second: CSc1ccc(N2CCc3ccccc32)c([N+](=O)[O-])c1
The melting point of the first is higher: 238 to 240 °C for the first, 67 to 69 °C for the second.

Compared with COc1cc(C(=O)NN)cc(OC)c1OCCCN(C)C, COc1cc(C=CC(=O)c2ccccc2N(C)C)cc(OC)c1 is higher in melting point: 95 to 96 °C for the first, 160 °C for the second.

First: CC(C)(C)Cc1c(CC(C)(C)C(=O)O)n(Cc2ccc(Cl)cc2)c2ccc(OCc3ccc4sccc4n3)cc12
Second: CC(C)(Cc1c(Cc2ccccc2)c2cc(OCc3ccc4ccccc4n3)ccc2n1Cc1ccc(Cl)cc1)C(=O)O
The melting point of the first is higher: 187 to 188 °C for the first, 178 °C for the second.

First: COc1cc(OC)c2c(=O)cc(-c3ccc(C#N)cc3)oc2c1C1CCN(C)C1CO (configuration not stated)
Second: CC(=O)Oc1ccccc1N1CCN(CCCNC(=O)c2cccc3c(=O)c(C)c(-c4ccccc4)oc23)CC1
The melting point of the first is higher: 214 to 216 °C for the first, 120 to 123 °C for the second.

Compared with CC(CCl)(CCl)c1cc(Cl)nnc1Cl, Clc1cc2nc(Cl)c(I)n2cc1Cl is higher in melting point: 92 to 94 °C for the first, 215 to 216 °C for the second.

First: OC1(O)C(F)(F)CCCC1(Cl)Cl
Second: Cc1ccc(C(=O)Oc2ccc(C(CN(C)C)C3(O)CCCCC3)cc2)cc1 (configuration not stated)
The melting point of the first is lower: 30 °C for the first, 159 to 162 °C for the second.

Compared with Cc1cc(C)n2nc(S(=O)(=O)Cl)nc2c1, Cc1cc(=O)n2ncn(N)c2n1 is higher in melting point: 125 to 126 °C for the first, 202 to 204 °C for the second.

First: CCOC(=O)N1CCc2nnc(NN)cc2C1
Second: c1ccc(NN2CCc3ccccc3C2)nc1
The melting point of the first is higher: 145 to 147 °C for the first, 116 to 117 °C for the second.

First: CC(C)(O)Cc1nc2cnc3ccccc3c2s1
Second: Cc1nc2ccccc2n2cnc(-c3nc(C4CC4)no3)c12
The melting point of the first is lower: 155 to 157 °C for the first, 188 to 189 °C for the second.

Compared with O=c1c(Cl)c(-c2ccncn2)nc2n1CCCN2C[C@@H](O)c1ccccc1, CC1C(=O)C2CC(=O)N2C1C(=O)OC(c1ccccc1)c1ccccc1 (configuration not stated) is lower in melting point: 158 to 160 °C for the first, 132 to 133 °C for the second.

First: CCCOc1ccccc1-c1nc(NCCO)cc(=O)[nH]1
Second: NS(=O)(=O)c1ccccc1OCCCl
The melting point of the first is higher: 164 to 166 °C for the first, 110 °C for the second.

Compared with O=C(Cc1cccc2ccccc12)Nc1cc([C@H]2C[C@@H](NC(=O)c3cccc([N+](=O)[O-])c3)C2)[nH]n1, CC(=O)c1c(C)nc(N(Cc2ccccc2)Cc2ccccc2)c(N)c1NCCc1ccccc1 is higher in melting point: 124 °C for the first, 152 to 153 °C for the second.

Compared with Cc1ccccc1-c1cnc2c(C(F)(F)F)cccc2c1-c1cccc(NC(=O)Nc2ccccc2F)c1, OC(c1cc(-c2ccc(F)cc2)c(-c2ccc(F)cc2)[nH]1)(C(F)(F)F)C(F)(F)F is lower in melting point: 218 to 220 °C for the first, 112 to 113 °C for the second.

O=C(O)c1cc(O)cc2nc3c(O)cccc3nc12 and O=C(O)c1cccc2cc3ccc(Cl)cc3c(C(=O)O)c12 cannot be ordered by melting point: greater than 300 °C for the first, 325 to 327 °C for the second.

Compared with CC=CC(=O)Nc1n[nH]c2ccc(C(F)(F)F)cc12, CC(C)(C)NC(=O)N1CC(Oc2ccc(C(F)(F)F)cc2)C1 is lower in melting point: 242 °C for the first, 145 to 146 °C for the second.

First: CC(C)c1c(O)cccc1O
Second: Cc1c(O)nc2ccc(F)cc2c1C(=O)O
The melting point of the first is lower: 79 to 82 °C for the first, greater than 305 °C for the second.

Nc1sc2c(c1C(=O)c1cccs1)CCCC2 and CC(C)(C)c1cc(C(=S)OCc2ccccc2)cc(C(C)(C)C)c1O cannot be ordered by melting point: 115 to 118 °C for the first, 115 to 119 °C for the second.

First: CS(=O)(=O)Nc1ccc2[nH]ccc2c1
Second: COc1ccc2c(c1)N(CCCCl)c1cccc(S(C)(=O)=O)c1S2
The melting point of the first is higher: 133 to 135 °C for the first, 122 to 124 °C for the second.

Compared with CCCCCP(=S)(CCCCC)NP(=S)(CCCCC)CCCCC, CCN(CC)C(=O)/C=C(\C)c1ccc(OCc2c(F)cccc2F)c(CC(=O)O)c1 is higher in melting point: 59 to 63.5 °C for the first, 167 to 168 °C for the second.

Compared with COC(=O)C(CCSC)c1nc(C)nc2c1nnn2-c1ccc(C(C)C)cc1Br (configuration not stated), CC(C)(C)OC(=O)c1nc(-c2ccc(Cl)cc2Cl)n(-c2ccc(Cl)cc2)c1Br is higher in melting point: 135 to 137 °C for the first, 198 to 200 °C for the second.

Compared with CSc1ccc(C=CC(=O)C=Cc2ccc(SC)cc2)cc1, O=c1[nH]c2ccc(-c3cccnc3)cc2cc1Br is higher in melting point: 143 to 145 °C for the first, 297 to 300 °C for the second.

First: CC(=O)Nc1nnnn1CC(I)=C(I)I
Second: COc1nn(-c2ccnc(N[C@H]3CC[C@H](O)CC3)n2)c2ccccc12
The melting point of the first is lower: 178 to 185 °C for the first, 202 to 205 °C for the second.

First: COc1ccc2nc(Cl)cc(C)c2c1
Second: O=Cc1coc2ccc(Br)cc2c1=O
The melting point of the first is lower: 144 to 145 °C for the first, 186 to 188 °C for the second.

First: Cc1ccc(-c2c(N)oc3c(C(C)(C)C)cc(C(C)(C)C)cc23)cc1C
Second: CC1(C)C(=O)Nc2ccc(C3(C#N)C=CC=N3)cc21 (configuration not stated)
The melting point of the first is lower: 128 to 130 °C for the first, 256 to 258 °C for the second.
